Assay results published in paper PMC5218480 (PLoS ONE, 2017).

System: MV-4-11 cells
Test: Gene expression microarray analysis (Affymetrix PrimeView) and GSEA
Type: cell-based, human
Set-up: RFU PODN (11730768_x_at) / Fold change /veh PODN (11730768_x_at) / RFU LINC00158 (11744669_a_at) / Fold change /veh LINC00158 (11744669_a_at) / RFU DUSP10 (11751237_a_at) / Fold change /veh DUSP10 (11751237_a_at) / RFU ID3 (11757404_x_at) / Fold change /veh ID3 (11757404_x_at) / RFU PLEKHG5 (11737974_s_at) / Fold change /veh PLEKHG5 (11737974_s_at) / RFU LRRC4B (11730491_at) / Fold change /veh LRRC4B (11730491_at) / RFU GIMAP4 (11747438_a_at) / Fold change /veh GIMAP4 (11747438_a_at) / RFU KRT8 (11758183_x_at) / Fold change /veh KRT8 (11758183_x_at) / RFU CNN1 (11734310_a_at) / Fold change /veh CNN1 (11734310_a_at) / RFU VPS37D (11726825_at) / Fold change /veh VPS37D (11726825_at) / RFU C10orf10 (11716522_x_at) / Fold change /veh C10orf10 (11716522_x_at) / RFU KIR2DL2 /// KIR2DL4 /// KIR2DL5A /// KIR2DL5B /// KIR2DS1 /// KIR2DS2 /// KIR2DS3 /// KIR2DS4 /// KIR3DL3 /// KIR3DL3 /// KIR3DS1 (11738374_at) / Fold change /veh KIR2DL2 /// KIR2DL4 /// KIR2DL5A /// KIR2DL5B /// KIR2DS1 /// KIR2DS2 /// KIR2DS3 /// KIR2DS4 /// KIR3DL3 /// KIR3DL3 /// KIR3DS1 (11738374_at) / RFU C1QL1 (11718748_at) / Fold change /veh C1QL1 (11718748_at) / RFU TMPRSS4 (11747572_a_at) / Fold change /veh TMPRSS4 (11747572_a_at) / RFU HAMP (11756126_x_at) / Fold change /veh HAMP (11756126_x_at) / RFU RNFT2 (11725882_a_at) / Fold change /veh RNFT2 (11725882_a_at) / RFU NR4A2 (11747474_a_at) / Fold change /veh NR4A2 (11747474_a_at) / RFU ABCC12 (11746883_a_at) / Fold change /veh ABCC12 (11746883_a_at) / RFU TMEM136 (11760407_x_at) / Fold change /veh TMEM136 (11760407_x_at) / RFU CLDN22 /// WWC2 (11732394_at) / Fold change /veh CLDN22 /// WWC2 (11732394_at) / RFU HLA-DPB1 (11760878_x_at) / Fold change /veh HLA-DPB1 (11760878_x_at) / RFU SPINT1 (11716480_a_at) / Fold change /veh SPINT1 (11716480_a_at) / RFU GAP43 (11754022_s_at) / Fold change /veh GAP43 (11754022_s_at) / RFU A4GNT (11735810_at) / Fold change /veh A4GNT (11735810_at) / RFU PRB3 (11715151_x_at) / Fold change /veh PRB3 (11715151_x_at) / RFU TUBB4B (11761932_at) / Fold change /veh TUBB4B (11761932_at) / RFU CAPN14 (11732068_a_at) / Fold change /veh CAPN14 (11732068_a_at) / RFU TMCC2 (11721928_a_at) / Fold change /veh TMCC2 (11721928_a_at) / RFU IRGQ (11745062_a_at) / Fold change /veh IRGQ (11745062_a_at) / RFU FAM174B (11720279_a_at) / Fold change /veh FAM174B (11720279_a_at) / RFU TMPRSS4 (11748680_a_at) / Fold change /veh TMPRSS4 (11748680_a_at) / RFU FAM212B (11763350_a_at) / Fold change /veh FAM212B (11763350_a_at) / RFU PLEKHG5 (11743358_a_at) / Fold change /veh PLEKHG5 (11743358_a_at) / RFU ZSCAN30 (11745921_a_at) / Fold change /veh ZSCAN30 (11745921_a_at) / RFU CMKLR1 (11741424_a_at) / Fold change /veh CMKLR1 (11741424_a_at) / RFU LOC101060620 /// MAPK8IP1 (11723275_at) / Fold change /veh LOC101060620 /// MAPK8IP1 (11723275_at) / RFU SPTSSB (11747773_x_at) / Fold change /veh SPTSSB (11747773_x_at) / RFU PRSS12 (11739890_at) / Fold change /veh PRSS12 (11739890_at) / RFU BIN1 (11741810_x_at) / Fold change /veh BIN1 (11741810_x_at) / RFU WNT11 (11732464_a_at) / Fold change /veh WNT11 (11732464_a_at) / RFU C10orf10 (11716521_a_at) / Fold change /veh C10orf10 (11716521_a_at) / RFU C5orf56 (11738089_at) / Fold change /veh C5orf56 (11738089_at) / RFU CYB561 (11721691_x_at) / Fold change /veh CYB561 (11721691_x_at) / RFU ANKRD19P (11752326_a_at) / Fold change /veh ANKRD19P (11752326_a_at) / RFU OR2T12 /// OR2T33 /// OR2T8 (11738714_s_at) / Fold change /veh OR2T12 /// OR2T33 /// OR2T8 (11738714_s_at) / RFU VCAN (11748164_a_at) / Fold change /veh VCAN (11748164_a_at) / RFU JSRP1 (11732532_at) / Fold change /veh JSRP1 (11732532_at) / RFU KRTAP10-11 (11738290_x_at) / Fold change /veh KRTAP10-11 (11738290_x_at) / RFU MYO3A (11730013_a_at) / Fold change /veh MYO3A (11730013_a_at) / RFU EBF3 (11725865_a_at) / Fold change /veh EBF3 (11725865_a_at) / RFU CAMK2N1 (11719241_x_at) / Fold change /veh CAMK2N1 (11719241_x_at) / RFU C5orf56 (11738088_a_at) / Fold change /veh C5orf56 (11738088_a_at) / RFU OLFML3 (11715873_a_at) / Fold change /veh OLFML3 (11715873_a_at) / RFU LOC100653217 /// NTM (11731650_a_at) / Fold change /veh LOC100653217 /// NTM (11731650_a_at) / RFU MAPK11 (11762145_a_at) / Fold change /veh MAPK11 (11762145_a_at) / RFU FIZ1 (11724087_x_at) / Fold change /veh FIZ1 (11724087_x_at) / RFU OASL (11726364_x_at) / Fold change /veh OASL (11726364_x_at) / RFU SOX15 (11748057_x_at) / Fold change /veh SOX15 (11748057_x_at) / RFU CD79A (11719716_a_at) / Fold change /veh CD79A (11719716_a_at) / RFU HIST1H1D (11736915_at) / Fold change /veh HIST1H1D (11736915_at) / RFU CASKIN2 (11723855_a_at) / Fold change /veh CASKIN2 (11723855_a_at) / RFU LOC730098 (11760151_x_at) / Fold change /veh LOC730098 (11760151_x_at) / RFU OR4N2 (11742367_at) / Fold change /veh OR4N2 (11742367_at) / RFU PRRT2 (11749266_a_at) / Fold change /veh PRRT2 (11749266_a_at) / RFU SNX32 (11753110_a_at) / Fold change /veh SNX32 (11753110_a_at) / RFU CDHR5 (11726645_a_at) / Fold change /veh CDHR5 (11726645_a_at) / RFU RCAN1 (11760418_a_at) / Fold change /veh RCAN1 (11760418_a_at) / RFU FAM167A (11723789_a_at) / Fold change /veh FAM167A (11723789_a_at) / RFU FAM26E (11764081_at) / Fold change /veh FAM26E (11764081_at) / RFU ISYNA1 (11749810_s_at) / Fold change /veh ISYNA1 (11749810_s_at) / RFU ACY1 (11761880_at) / Fold change /veh ACY1 (11761880_at) / RFU 11764098_at / Fold change /veh 11764098_at / RFU SAMD14 (11745864_x_at) / Fold change /veh SAMD14 (11745864_x_at) / RFU NPB (11741838_a_at) / Fold change /veh NPB (11741838_a_at) / RFU TMPRSS6 (11731388_a_at) / Fold change /veh TMPRSS6 (11731388_a_at) / RFU KRTAP10-2 (11738614_at) / Fold change /veh KRTAP10-2 (11738614_at) / RFU ARHGAP8 /// PRR5-ARHGAP8 (11727945_x_at) / Fold change /veh ARHGAP8 /// PRR5-ARHGAP8 (11727945_x_at) / RFU KRTAP5-7 /// NADSYN1 (11734609_at) / Fold change /veh KRTAP5-7 /// NADSYN1 (11734609_at) / RFU RASL12 (11751679_a_at) / Fold change /veh RASL12 (11751679_a_at) / RFU CDKN2B (11736163_a_at) / Fold change /veh CDKN2B (11736163_a_at) / RFU PRF1 (11729649_at) / Fold change /veh PRF1 (11729649_at) / RFU, ZNF638 /// ZNF638-IT1 / Fold change vs veh, ZNF638 /// ZNF638-IT1 / RFU, PANK3 / Fold change vs veh, PANK3 / RFU, SH3YL1 / Fold change vs veh, SH3YL1 / RFU, ZEB2 / Fold change vs veh, ZEB2 / RFU, NRIP1 / Fold change vs veh, NRIP1 / RFU, PTTG1IP / Fold change vs veh, PTTG1IP / RFU, CAPN2 / Fold change vs veh, CAPN2 / RFU, MED14 / Fold change vs veh, MED14 / RFU, SNORA58 / Fold change vs veh, SNORA58 / RFU, C1orf63 / Fold change vs veh, C1orf63 / RFU, LRRFIP1 / Fold change vs veh, LRRFIP1 / RFU, NDUFAF7 / Fold change vs veh, NDUFAF7 / RFU, SLC12A2 / Fold change vs veh, SLC12A2 / RFU, IBTK / Fold change vs veh, IBTK / RFU, ESF1 / Fold change vs veh, ESF1 / Fold change vs veh, TMEM50B / RFU, TAOK1 / Fold change vs veh, TAOK1 / RFU, ACBD3 / Fold change vs veh, ACBD3 / RFU, TMA16 / Fold change vs veh, TMA16 / RFU, RWDD3 / Fold change vs veh, RWDD3 / RFU, BCAT1 / Fold change vs veh, BCAT1 / RFU, EDEM3 / Fold change vs veh, EDEM3 / RFU, TMEM33 / Fold change vs veh, TMEM33 / RFU, WDR75 / Fold change vs veh, WDR75 / RFU, AHCTF1 / Fold change vs veh, AHCTF1 / RFU, TFRC / Fold change vs veh, TFRC / RFU, ZDHHC17 / Fold change vs veh, ZDHHC17 / RFU, NOM1 / Fold change vs veh, NOM1 / RFU, ARL8B / Fold change vs veh, ARL8B / RFU, ZBTB11 / Fold change vs veh, ZBTB11 / RFU, TAMM41 / Fold change vs veh, TAMM41 / RFU, KIAA1704 /// LOC100996395 / Fold change vs veh, KIAA1704 /// LOC100996395 / RFU, ING1 / Fold change vs veh, ING1 / RFU, TRMT61B / Fold change vs veh, TRMT61B / RFU, FUBP3 / Fold change vs veh, FUBP3 / RFU, TP53 / Fold change vs veh, TP53 / RFU, TNKS2 / Fold change vs veh, TNKS2 / RFU, ZFP14 / Fold change vs veh, ZFP14 / RFU, ACTR2 / Fold change vs veh, ACTR2 / RFU, PPP3R1 / Fold change vs veh, PPP3R1 / RFU, PIK3R1 / Fold change vs veh, PIK3R1 / RFU, HNRNPA1 / Fold change vs veh, HNRNPA1 / RFU, RNF170 / Fold change vs veh, RNF170 / RFU, ZNF28 / Fold change vs veh, ZNF28 / RFU, RNGTT / Fold change vs veh, RNGTT / RFU, OGT / Fold change vs veh, OGT / RFU, BRD1 / Fold change vs veh, BRD1 / RFU, MARS / Fold change vs veh, MARS / RFU, ZNF655 / Fold change vs veh, ZNF655 / RFU, FAHD1 / Fold change vs veh, FAHD1 / RFU, BDP1 / Fold change vs veh, BDP1 / RFU, LRRCC1 / Fold change vs veh, LRRCC1 / RFU, ARID1A / Fold change vs veh, ARID1A / RFU, ZNF146 / Fold change vs veh, ZNF146 / RFU, ZNF330 / Fold change vs veh, ZNF330 / RFU, GPN3 / Fold change vs veh, GPN3 / RFU, C9orf123 / Fold change vs veh, C9orf123 / RFU, N4BP2L2 / Fold change vs veh, N4BP2L2 / RFU, ARFIP1 / Fold change vs veh, ARFIP1 / RFU, FAM179B / Fold change vs veh, FAM179B / RFU, BCL10 / Fold change vs veh, BCL10 / RFU, UHRF1BP1L / Fold change vs veh, UHRF1BP1L / RFU, BET1 / Fold change vs veh, BET1 / RFU, CNOT2 / Fold change vs veh, CNOT2 / RFU, ZNF268 / Fold change vs veh, ZNF268 / Fold change vs veh, ZNF507 / RFU, DGCR2 / Fold change vs veh, DGCR2 / RFU, WDSUB1 / Fold change vs veh, WDSUB1 / Fold change vs veh, HSP90B1 /// MIR3652 / RFU, ADSS / Fold change vs veh, ADSS / RFU, GK / Fold change vs veh, GK / RFU, ZNF148 / Fold change vs veh, ZNF148 / RFU, TAF9 / Fold change vs veh, TAF9 / RFU, SLC1A5 / Fold change vs veh, SLC1A5 / RFU, SLMO2 / Fold change vs veh, SLMO2 / RFU, ABCC4 / Fold change vs veh, ABCC4 / RFU, LOC101060439 /// RAP1B / Fold change vs veh, LOC101060439 /// RAP1B / RFU, RFX7 / Fold change vs veh, RFX7 / RFU, GTPBP10 / Fold change vs veh, GTPBP10 / RFU, CNEP1R1 / Fold change vs veh, CNEP1R1 / RFU, BIVM-ERCC5 /// ERCC5 / Fold change vs veh, BIVM-ERCC5 /// ERCC5 / RFU, ILF3 / Fold change vs veh, ILF3 / RFU 11762660_at / Fold change /veh 11762660_at / RFU VCAN (11757783_s_at) / Fold change /veh VCAN (11757783_s_at) / RFU DDX43 (11728927_at) / Fold change /veh DDX43 (11728927_at) / RFU KRT8 (11758188_x_at) / Fold change /veh KRT8 (11758188_x_at) / RFU NKD1 (11759106_at) / Fold change /veh NKD1 (11759106_at) / RFU SRD5A1 (11742802_a_at) / Fold change /veh SRD5A1 (11742802_a_at) / RFU TPSAB1 /// TPSB2 (11721975_s_at) / Fold change /veh TPSAB1 /// TPSB2 (11721975_s_at) / RFU GSTM3 (11746129_a_at) / Fold change /veh GSTM3 (11746129_a_at) / RFU IL23R (11737362_x_at) / Fold change /veh IL23R (11737362_x_at) / RFU TMEM51 (11727254_a_at) / Fold change /veh TMEM51 (11727254_a_at) / RFU PIWIL2 (11732686_x_at) / Fold change /veh PIWIL2 (11732686_x_at) / RFU ORM1 (11744905_x_at) / Fold change /veh ORM1 (11744905_x_at) / RFU CCDC152 (11743942_at) / Fold change /veh CCDC152 (11743942_at) / RFU ECM1 (11717891_a_at) / Fold change /veh ECM1 (11717891_a_at) / RFU IL23R (11748794_a_at) / Fold change /veh IL23R (11748794_a_at) / RFU TNFAIP8L3 (11732012_x_at) / Fold change /veh TNFAIP8L3 (11732012_x_at) / RFU MBOAT4 (11741988_at) / Fold change /veh MBOAT4 (11741988_at) / RFU 11764193_at / Fold change /veh 11764193_at / RFU TMEM53 (11763286_at) / Fold change /veh TMEM53 (11763286_at) / RFU MAGEB2 (11727129_at) / Fold change /veh MAGEB2 (11727129_at) / RFU TMEM200A (11744735_a_at) / Fold change /veh TMEM200A (11744735_a_at) / RFU CCDC152 (11751479_a_at) / Fold change /veh CCDC152 (11751479_a_at) / RFU FAM211A (11726209_a_at) / Fold change /veh FAM211A (11726209_a_at) / RFU RGS16 (11746705_a_at) / Fold change /veh RGS16 (11746705_a_at) / RFU VCAN (11755009_s_at) / Fold change /veh VCAN (11755009_s_at) / RFU RHOB (11743442_s_at) / Fold change /veh RHOB (11743442_s_at) / RFU RGS16 (11720943_a_at) / Fold change /veh RGS16 (11720943_a_at) / RFU RGS16 (11720944_at) / Fold change /veh RGS16 (11720944_at) / RFU, VPS4B / Fold change vs veh, VPS4B / RFU, CREB1 / Fold change vs veh, CREB1 / RFU, DNAJC13 / Fold change vs veh, DNAJC13 / RFU, GNAQ / Fold change vs veh, GNAQ / RFU, CDK5R1 / Fold change vs veh, CDK5R1 / RFU, ZRANB3 / Fold change vs veh, ZRANB3 / RFU, CUL4A / Fold change vs veh, CUL4A / RFU, CCNY / Fold change vs veh, CCNY / RFU, UFL1 / Fold change vs veh, UFL1 / RFU, COG3 / Fold change vs veh, COG3 / RFU, DIAPH2 / Fold change vs veh, DIAPH2 / RFU, SKA2 / Fold change vs veh, SKA2 / RFU, AFF3 / Fold change vs veh, AFF3 / RFU, LMF1 / Fold change vs veh, LMF1 / RFU, IPO11 / Fold change vs veh, IPO11 / RFU, DFFB / Fold change vs veh, DFFB / RFU, FOXP1 / Fold change vs veh, FOXP1 / RFU, CARD8 / Fold change vs veh, CARD8 / RFU, STRN3 / Fold change vs veh, STRN3 / RFU, ADK / Fold change vs veh, ADK / RFU, RASSF2 / Fold change vs veh, RASSF2 / RFU, WIPF1 / Fold change vs veh, WIPF1 / RFU, LARP1B / Fold change vs veh, LARP1B / RFU, RASA1 / Fold change vs veh, RASA1 / RFU, RB1 / Fold change vs veh, RB1 / RFU, PPFIA1 / Fold change vs veh, PPFIA1 / RFU, MAT2A / Fold change vs veh, MAT2A / RFU, CCT5 / Fold change vs veh, CCT5 / RFU, WDR92 / Fold change vs veh, WDR92 / RFU, CUX1 / Fold change vs veh, CUX1 / RFU, TTC7A / Fold change vs veh, TTC7A / RFU, TMEM135 / Fold change vs veh, TMEM135 / RFU, DEPTOR / Fold change vs veh, DEPTOR / RFU, CPM / Fold change vs veh, CPM / RFU, DNAJB6 / Fold change vs veh, DNAJB6 / RFU, CACNA2D3 / Fold change vs veh, CACNA2D3 / RFU, DTX4 / Fold change vs veh, DTX4 / RFU, TFCP2 / Fold change vs veh, TFCP2 / RFU, GMCL1 /// GMCL1P1 / Fold change vs veh, GMCL1 /// GMCL1P1 / RFU, AEBP2 / Fold change vs veh, AEBP2 / RFU, SNHG1 /// SNORD22 /// SNORD25 /// SNORD26 /// SNORD27 /// SNORD28 /// SNORD29 /// SNORD31 / Fold change vs veh, SNHG1 /// SNORD22 /// SNORD25 /// SNORD26 /// SNORD27 /// SNORD28 /// SNORD29 /// SNORD31 / Fold change (Aza/veh), C12orf56 (ProbeSet 11735607_a_at) / Fold change (ACY-1035/veh), C12orf56 (ProbeSet 11735607_a_at) / Fold change (Aza/veh), FGFR1OP (ProbeSet 11751329_s_at) / Fold change (ACY-1035/veh), FGFR1OP (ProbeSet 11751329_s_at) / Fold change (Aza/veh), VPS36 (ProbeSet 11739960_a_at) / Fold change (ACY-1035/veh), VPS36 (ProbeSet 11739960_a_at) / RFU SYPL1 (11715823_x_at) / Fold change /veh SYPL1 (11715823_x_at) / RFU IGFBP7 (11715501_s_at) / Fold change /veh IGFBP7 (11715501_s_at) / RFU REEP3 (11722064_at) / Fold change /veh REEP3 (11722064_at) / RFU IGLL1 (11728026_x_at) / Fold change /veh IGLL1 (11728026_x_at): dose or concentration left out as unconfirmed
Details: ProbeSet 11725902_s_at; LIST D

`Nc1ccc(-c2cccs2)cc1NC(=O)c1ccc2c(c1)cc(C1CC1)n2CCN1CCOCC1` [ACY-1035] was tested, and the “RFU, TMEM135” value was 107.94 RFU.
